Series [1] in a line: Stabilisation of polyethylene in permanent contact with water (extraction test, oxidation induction time). The following applies: 0.05% compound (302) with 0.10% Irganox 1010, 0.05% Irgafos, 0.10% calcium stearate in PE-HD; deionised water, 50 days at 80° C. How it is done: Stabilisation of polyethylene which is in permanent contact with water.
0.10% by weight of calcium stearate and a stabilizer mixture comprising 0.10% by weight of Irganox®1010 (pentaerythritol tetrakis[3-(3,5-di-tert-butyl-4-hydroxyphenyl)propionate]), 0.05% by weight of Irgafos®68 (tris(2,4-di-tert-butylphenyl)phosphite) and 0.05% by weight of compound (302) (Table 3) is added dry to a polyethylene polymer (Hostalene® CRP 100; PE-HD) taken direct from a reactor and are incorporated therein in a Pappenmaier mixer (type 20) within 2 minutes.
In an extruder, of Schwabenthan, the stabilized polyethylene is homogenised and processed to granulate. For the extraction tests in water, 200 mm by 150 mm by 2 mm test plates are pressed from the granulate of the individual formulations using a table press. To ease the demoulding of the test plates, the pressing process is carried out between two aluminium foils. […]
The test plates are subjected to the above test conditions for 50 days at 80° C. Upon termination of the extraction test, the residual stabilizer content and the oxidation induction time of the test plates are determined.
The residual content of sterically hindered phenol, Irganox®1010, is determined using an internal standard in an HPLC appliance of the Spectra Physics SP 8800 type, equipped with autosampler and UV/VIS detector of the Spectra 200 type. […]

We go through 4 compounds from patent US6586606B2, “Process for the preparation of 3-aryl-benzofuran-2-ones” (Ciba Specialty Chemicals Corporation, priority 2000, dated 2003).

By melting point is commonly meant the temperature, or range, at which the solid turns liquid. Turning to `Cc1ccc(-c2c(N)oc3c(C(C)(C)C)cc(C(C)(C)C)cc23)cc1C` [Compound (302), 2-amino-5,7-di-tert-butyl-3-(3,4-dimethylphenyl)-benzofurane], the melting point lay within 128 to 130 °C. For the same compound, the “stability of polyolefins in permanent contact with extracting media” value in series [1] is given as “improved”.
With `CC(C)(C)c1cc2c(c(C(C)(C)C)c1)OC(=O)C2c1ccccc1` (centres unmarked) [(101), 5,7-di-tert-butyl-3-phenyl-3H-benzofuran-2-one], the melting point fell in the range of 116 to 119 °C.
On the same count and under the same terms, with `COc1ccc(-c2c(N)oc3c(C(C)(C)C)cc(C(C)(C)C)cc23)cc1OC` [(303), 2-amino-5,7-di-tert-butyl-3-(3,4-dimethoxyphenyl)-benzofurane] the figure was 172 to 174 °C; with `CC(C)(C)c1cc(C(C)(C)C)c2oc(N)c(-c3ccccc3)c2c1` [Compound (301), 2-amino-3-phenyl-5,7-di-tert-butyl-benzofurane], 174 to 178 °C.
